Reference: US10174065B2, “Antidiabetic enolic glucoside of phenylpyruvic acid” (ZADEC APS, priority 2010, dated 2019)

Tests used:
[1] = tested on: gene expression in pancreas; test: Quantitative real-time PCR gene expression in pancreas of obese, insulin resistant Wistar rats; type: in vivo
Experimental: Three week old male rats were fed a high fat diet for 24 weeks to induce obesity and insulin resistance. Thereafter, rats were treated with 0.3 mg/kg Rx-1 daily for two weeks, and then with 3 mg/kg Rx-1 daily for seven days. Fasting glucose concentrations were measured before treatment, after two weeks treatment with 0.3 mg/kg Rx-1 and then again after seven days treatment with 3 mg/kg Rx-1. After treatment with 3 mg/kg Rx-1 rats were terminated and liver, muscle and pancreas biopsies were taken. Quantitative real-time PCR was used to measure the expression of 12 genes in liver and muscle samples, and ten genes in pancreas samples.
Rats were housed at the Primate Unit (Medical Research Council, South Africa). Rat management including feeding, glucose measurements and terminations, were done according to standard operating procedures (Diabetes Discovery Platform, Medical Research Council). Briefly, three week old rats were fed a high fat diet for 24 weeks to induce T2D. The study group consisted of thirteen rats, eight rats were treated by daily gavage with 0.3 mg/kg Rx-1 for two weeks, and then with 3 mg/kg Rx-1 for seven days. Five rats were used as controls and were treated with water only for three weeks. Rats were terminated after treatment and liver, muscle and pancreas tissue harvested and stored in RNalater (Ambion) as recommended by the manufacturer. The study was approved by the ethics committee of the Medical Research Council of South Africa.
RNA extracted from liver, muscle and pancreas tissue was converted to cDNA using the High Capacity Reverse Transcription kit as recommended by the manufacturers (Applied Biosystems). In brief, 2 μg of DNase-treated RNA was added to nuclease-free water in a volume of 10 μl. Thereafter, 2 μl reaction buffer, 0.8 μl dNTPs, 2 μl random primers, 1 μl RNase-inhibitor, 1 μl reverse transcriptase, and 3.2 μl nuclease-free water were added. The same reaction without the reverse transcription enzyme (minus RT reaction) was set-up to investigate genomic DNA contamination. Reactions were incubated at 25° C. for 10 min, 37° C. for 120 min, and 85° C. for 5 s to inactivate the reverse transcriptase. cDNA samples were stored at −20° C. until expression analysis.
For analysis of gene expression, 25 ng of cDNA prepared from liver, muscle and pancreas was mixed with 12.5 μl Taqman universal PCR master mix (Applied Biosystems), 1.25 μl gene-specific primer and probe mixtures (predeveloped Taqman gene expression assays, Applied Biosystems), and H2O in a final volume of 25 μl. The suffix _m represents an assay whose probe spans an exon-exon junction of the associated gene and therefore will not detect genomic DNA, while the suffix _s represents an assay whose primers and probes are designed within a single exon, such assays will detect genomic DNA.
The PCR reactions were conducted on the ABI 7500 Sequence Detection System Instrument (Applied Biosystems) using universal cycling conditions as described before. All samples were run in duplicate. Data generated on the ABI 7500 Instrument were analysed with the ABI Relative Quantitation (RQ) software (SDS V1.4) using a Ct threshold of 0.1. Relative expression levels were determined by using the 2^−ΔΔCt method, where ΔΔCt=(Ctgene studied−Cthousekeeping gene)treated−(Ctgene studied−Cthousekeeping gene)control. The gene expression was normalised to housekeeping genes to correct for differences in cDNA loading. Two gene expression assays, β-actin (ActB) and glyceraldehyde-3-phosphate dehydrogenase (Gapdh) (Table 1) were used as endogenous controls. Relative gene expression data generated by the RQ software for each of the two endogenous controls individually or the data normalised to the average of the two endogenous controls were imported into Microsoft Excel and analysed. […]

[2] = tested on: Chang cells; test: 2-deoxy-[3H]-D-glucose uptake assay; type: cell-based; details: Chang cell cultures, 3 hrs exposure
Experimental: The glucose uptake of RX-1 and selected analogues after administration of test compounds to Chang cell cultures were determined in an operating protocol for the 2-deoxy-[^3H]-D-glucose. The protocol, which is described in more detail below, has been designed to test for the RX-1 (and RX-1 analogues) mediated glucose uptake. In Table the EC50 values for the uptake for RX-1 and representative analogues is shown.
Stock solutions of the RX-1 analogues supplied in cryo vials (DrugMode) was prepared by diluting the compound with […] sterile tissue culture grade water. This will yield a 5 mM stock solution. If the analogue […] an additional 50 μl methanol will be added (this will be recorded clearly on the log sheet). This will yield a 4 mM stock solution. Stock solutions will be kept on ice at all times and analogues will be stored in 20 μl aliquots at −80 C for subsequent use. Tubes that have been thawed will be clearly marked on the label.
RX-1 (10 μM) Positive Control Solution • To prepare a 10 μM RX-1 solution as positive control. Add 30 μl to 2970 μl modified DMEM media supplemented with 8 mM glucose.
RX-1 Analogue (31.6 μM) Test Solutions • To prepare a 31.6 μM RX-1 analogue test solution. Add 19 μl of the 5 mM to 2981 μl modified DMEM media supplemented with 8 mM glucose. To prepare a 31.6 μM RX-1 analogue test solution from a 4 mM stock solution, add 24 μl to 2976 μl modified DMEM media supplemented with 8 mM glucose.
Cell Seeding in 24-Well Plates • Chang cells are cultured according to procedures described in MRC cell culture SOPs: TC-B2a Thawing of cells and TC-B1a Cell line maintenance—general principles. Make sure cells are in the log phase (i.e. <70% confluence) and less than 20 passages. • Harvest cells using 0.25% (w/v) Trypsin/0.53 mM EDTA solution. • Count cells and resuspend to 30 000 cells/ml (Chang cell seeding density for 24-well plate=30 000 cells/ml) in EMEM (with pyruvate and NEAA, but without L-glutamate (Lonza, USA) containing 10% FBS (Gibco, UK) and pipette 1 ml/well cell suspension to a 24-well plate corresponding to 30 000 cells/well.
• after 3 days of cell growth, aspirate medium • wash cells once with pre-warmed DPBS at 37° C. • add 500 μl of pre-warmed 37° C. DMEM/0.1% BSA (without phenol red, glucose and pyruvate) to serum starve cells to remove residual glucose and FBS • incubate at 37° C. in humidified air and 5% CO2 for 30 min • aspirate DMEM/0.1% BSA (without phenol red, glucose and pyruvate) • Prepare test dilutions as specified in the plate layout (see below) • add 500 μl pre-warmed 37° C. of test dilution per well according to plate layout • incubate at 37° C. in humidified air and 5% CO2 for 3 hrs • remove test medium and wash cells once with DPBS (37° C.) • add 250 μl of test medium containing 0.5 μCi/ml ^3H-2-DOG to each well use (0.5 μl ^3H to 1 ml medium) • Incubate cells at 37° C. in humidified air and 5% CO2 for 15 min • Aspirate medium • To stop the reaction, wash cells twice with ice-cold DPBS • Aspirate DPBS and ensure that wells are as dry as possible • Lyse cells by adding 1 ml of 0.3N NaOH/1% SDS and incubate at 37° C. for at least 45 min • Mix cell lysate thoroughly before subsequent use in LSC and Bradford protein determination

## O=C(O)/C(=C/c1ccccc1)O[C@@H]1O[C@H](CO)[C@@H](O)[C@H](O)[C@H]1O [RX-1, 3-Phenyl-2-(3,4,5-trihydroxy-6-hydroxymethyl-tetrahydro-pyran-2-yloxy)-acrylic acid]
[1]
  Pcsk2 or proconvertase 2 (PC2) mRNA levels: unaffected
  nestin mRNA levels: unaffected
[1]; not statistically significant
  GLP1R gene expression: increased
  Gcg mRNA levels: increased
  GcgR mRNA levels: increased
  Ins1 gene expression: increased
  Ins2 gene expression: increased
  Isl1 mRNA levels: increased
  Pdx1 gene expression: increased
[2]
  EC50: 3.22 µM
